From patent US20050187240A1, “Aaptamine and isoaaptamine and structural modifications thereof” (The Arizona Board of Regents, Acting for and on behalf of …, priority 2004, published 2005)

Key:
[1] = system: murine P388 lymphocytic leukemia cell line; assay: Cancer cell growth inhibition, murine P388 lymphocytic leukemia cell line; type: cell-based
Text: (§1) Evaluation of demethyloxyaaptamine (3), aaptamine (1), isoaaptamine (2) and hystatin 1 (11) against the Arizona State University Cancer Research Institute's human tumor cell line panel (Table 1) and the NCI 60-cell line human tumor screen were undertaken. (Boyd, M. R., Cancer: Principles and Practices of Oncology Updates; DeVita, et al., Eds; Lippincott: Philadelphia, 1989, Vol. 10, No. 3, pp. 1-12; Boyd, et al., Drug Development Research 1995, 34, 91-109; Boyd, M. R., et al. Cytotoxic Anticancer Drugs: Models and Concepts for Drug Discovery and Development; Valeriote, A., et al., Eds, Kluwer Academic Publishers: Amsterdam, 1992, pp. 11-34.)
(§2) Biology The cancer cell growth inhibitory properties were examined using the murine P388 lymphocytic leukemia cell line and a selection of human cancer cell lines.
(§3) All of the synthetic products were evaluated against a minipanel of human cancer cell lines, the murine P388 lymphocytic leukemia cell line and a selection of microorganisms.

lung NCI-H460 = assay: Cancer cell growth inhibition, lung NCI-H460; type: cell-based, human; conditions: lung NCI-H460
Text: as §1, §2, §3

colon KM 20L2 = assay: Cancer cell growth inhibition, colon KM 20L2; type: cell-based, human; conditions: colon KM 20L2
Text: as §1, §2, §3

pancreas BXPC-3 = assay: Cancer cell growth inhibition, pancreas BXPC-3; type: cell-based, human; conditions: pancreas BXPC-3
Description: as §2, §3

breast MCF-7 = assay: Cancer cell growth inhibition, breast MCF-7; type: cell-based, human; conditions: breast MCF-7
Description: as §2, §3

CNS SF-268 = assay: Cancer cell growth inhibition, CNS SF-268; type: cell-based, human; conditions: CNS SF-268
Description: as §2, §3

prostrate DU-145 = assay: Cancer cell growth inhibition, prostate DU-145; type: cell-based, human
Description: as §2, §3

Cryptococcus neoformans = assay: Broth microdilution susceptibility assay, Cryptococcus neoformans; type: cell-based
Candida albicans = assay: Broth microdilution susceptibility assay, Candida albicans; type: cell-based
Staphylococcus aureus = assay: Broth microdilution susceptibility assay, Staphylococcus aureus; type: cell-based
Streptococcus pneumoniae = assay: Broth microdilution susceptibility assay, Streptococcus pneumoniae; type: cell-based
Enterococcus faecalis = assay: Broth microdilution susceptibility assay, Enterococcus faecalis; type: cell-based
Micrococcus luteus = assay: Broth microdilution susceptibility assay, Micrococcus luteus; type: cell-based
Escherichia coli = assay: Broth microdilution susceptibility assay, Escherichia coli; type: cell-based
Enterobacter cloacae = assay: Broth microdilution susceptibility assay, Enterobacter cloacae; type: cell-based
[2] = system: Stenotrophomonas maltophilia; assay: Broth microdilution susceptibility assay, Stenotrophomonas maltophilia; type: cell-based
Neisseria gonorrhoeae = assay: Broth microdilution susceptibility assay, Neisseria gonorrhoeae; type: cell-based
[3] = system: Mycobacterium tuberculosis H37Rv; assay: Microplate Alamar Blue Assay, Mycobacterium tuberculosis; type: cell-based; conditions: 6.25 μg/ml
PKC alpha [4] = molecular target: T1, PKC alpha (Homo sapiens, UniProt P17252); assay: Inhibition of [3H]phorbol 12,13-dibutyrate binding to PKC alpha; conditions: 30 μM compound; read-out: inhibition of [3H]phorbol 12,13-dibutyrate binding to PKC alpha
Description: Isoaaptamine (2) and derivatives 4, 5, 7, 8, and 14-18 were evaluated as ligands for PKC, based on the initial report of activity for isoaaptamine (Patil, et al., PCT Int. Appl. WO 95/0584 March 1995). Activity was measured at 30 μM compound using inhibition of [^3H-20]phorbol 12,13-dibutyrate binding to PKC alpha as described previously (Kazanietz, M. G., et al., Molecular Pharmacol., 1993, 44, 298). Assays were carried out with triplicate measurements in either single or triplicate experiments, depending on the compound.
Compounds 4, 5, 9a-c, and 10a-d were evaluated as ligands for PKC, based on the initial report of activity for isoaaptamine. Activity was measured at 30 μM compound using inhibition of [20-^3H]phorbol 12,13-dibutyrate binding to PKC alpha as described previously (Kazanietz, M. G., et al., Characterization of Ligand and Substrate Specificity for the Calcium-Dependent and Calcium-Independent Protein Kinase C Isoenzymes, Molecular Pharmacol. 1993, 44, 298-307). Assays were carried out with triplicate measurement in either single or triplicate experiments, depending on the compound. Inhibition by 9a and 9b was 6.4% and 9.2%, respectively. That by 10a, 10b, and 10d was 11.8%, 12.6%, and 16.0%, respectively. That by other derivatives was 5% or less. We conclude that these compounds show only very weak activity as ligands for PKC.

PKC alpha [5] = molecular target: T1, PKC alpha; assay: Inhibition of PKC catalytic activity (peptide substrate phosphorylation); type: biochemical
Text: We further evaluated the ability of the derivatives to inhibit PKC catalytic activity. […] Inhibition by 10c was 19.5±7.6% and inhibition by 4, 5, and 9a, b, c was 6% or less (all values are mean±SEM, three experiments). […] In both cases, the inhibition curves were steeper than predicted for a competitive inhibitor, consistent with a complicated mechanism of action (Hill coefficients for 10a and 10b of 1.5±0.1 and 2.0±0.5, respectively).

[6] = Stability of the substance (observation); type: physicochemical
Text: When newly isolated, isoaaptamine (2) appears as a yellow colored powder that rapidly changes to dark green and finally brown or black, presumably due to air oxidation. […] For that purpose, isoaaptamine (2) was first phosphorylated with dibenzylphosphate (Pettit, G. R. et al., Anti-Cancer Drug Design 2000, 15, 203-216; Silverberg, L. J., Tetrahedron Lett. 1996, 37, 771-774). […] Scheme 2 below illustrates the aforementioned synthesis method. [drawing 17] Biology

[7] = Homo sapiens, Table 5, read-out: Cancer Cell Line Results ED50

COc1ccc(CN2C=Cc3cc(OC)c(OC)c4c3c2cc[n+]4Cc2ccc(OC)cc2)cc1.[Br-] [Compound 10b, 8,9-Dimethoxy-1,4-bis-(4-methoxybenzyl)-4H-benzo-[de][1,6]naphthyridin-1-ium bromide]
IC50 ([1]; Mus musculus, Table 5, leukemia P388, read-out: Cancer Cell Line Results ED50): 1.3 µg/mL
IC50 (lung NCI-H460; [7]): 0.33 µg/mL
IC50 (colon KM 20L2; [7]): 0.13 µg/mL
IC50 (pancreas BXPC-3; [7]): 0.11 µg/mL
IC50 (breast MCF-7; Homo sapiens, MCF7, Table 5, read-out: Cancer Cell Line Results ED50): 0.39 µg/mL
IC50 (CNS SF-268; [7]): 0.27 µg/mL
IC50 (prostrate DU-145; Homo sapiens, DU-145, Table 5, prostate DRU-145, read-out: Cancer Cell Line Results ED50): 0.1 µg/mL
Range of minimum inhibitory concentration (Cryptococcus neoformans; Table 6): 32 to 64 µg/mL
Range of minimum inhibitory concentration (Candida albicans; Table 6): * (no inhibition at 64 μg/mL)
Range of minimum inhibitory concentration (Staphylococcus aureus; Table 6): 4 µg/mL
Range of minimum inhibitory concentration (Streptococcus pneumoniae; Table 6): 16 to 32 µg/mL
Range of minimum inhibitory concentration (Enterococcus faecalis; Table 6): 16 to 32 µg/mL
Range of minimum inhibitory concentration (Micrococcus luteus; Table 6): <0.5 µg/mL
Range of minimum inhibitory concentration (Escherichia coli; Table 6): * (no inhibition at 64 μg/mL)
Range of minimum inhibitory concentration (Enterobacter cloacae; Table 6): * (no inhibition at 64 μg/mL)
Range of minimum inhibitory concentration ([2]; Table 6): * (no inhibition at 64 μg/mL)
Range of minimum inhibitory concentration (Neisseria gonorrhoeae; Table 6): 4 µg/mL
inhibition at 6.25 µg/mL [3]: 97%
inhibition at 30 µM (PKC alpha [4]): 12.6%
Hill coefficient of PKC inhibition curve (PKC alpha [5]): 2.0±0.5
inhibition at 30 µM (PKC alpha [5]; 30 μM compound, 1 μM phorbol 12-myristate 13-acetate, 100 μg/ml phospholipid, mean±SEM, three experiments, read-out: percent inhibition of PKC catalytic activity): 84.6 ± 1.1%
IC50 (PKC alpha [5]; complete dose response curves, mean±SEM, 3 experiments, read-out: ID50 for inhibition of PKC catalytic activity): 7.4 ± 1.2 µM

Disodium isoaaptamine 9-O-phosphate [Compound 11]
Cancer Cell Line Results ED50 ([1]; Table 1, leukemia murine P388): 3.0 µg/mL
Cancer cell growth inhibitory ED50 ([1]; Table 3, leukemia P-388): 0.23 µg/mL
Cancer Cell Line Results ED50 (lung NCI-H460; Table 1): >10 µg/mL
Cancer cell growth inhibitory ED50 (lung NCI-H460; Table 3): 1.9 µg/mL
Cancer Cell Line Results ED50 (colon KM 20L2; Table 1): >10 µg/mL
Cancer cell growth inhibitory ED50 (colon KM 20L2; Table 3): 0.88 µg/mL
Cancer cell growth inhibitory ED50 (pancreas BXPC-3; Table 3): 0.74 µg/mL
Cancer cell growth inhibitory ED50 (breast MCF-7; Table 3): 2.2 µg/mL
Cancer cell growth inhibitory ED50 (CNS SF-268; Table 3): 0.28 µg/mL
Cancer cell growth inhibitory ED50 (prostrate DU-145; Table 3, prostrate DU-145): 0.52 µg/mL
Range of minimum inhibitory concentration (Cryptococcus neoformans; Table 2): * (no inhibition at 64 ug/ml)
Range of minimum inhibitory concentration (Candida albicans; Table 2): * (no inhibition at 64 ug/ml)
Range of minimum inhibitory concentration (Staphylococcus aureus; Table 2): 64 µg/mL
Range of minimum inhibitory concentration (Streptococcus pneumoniae; Table 2): 16 to 32 µg/mL
Range of minimum inhibitory concentration (Enterococcus faecalis; Table 2): * (no inhibition at 64 ug/ml)
Range of minimum inhibitory concentration (Micrococcus luteus; Table 2): * (no inhibition at 64 ug/ml)
Range of minimum inhibitory concentration (Escherichia coli; Table 2): * (no inhibition at 64 ug/ml)
Range of minimum inhibitory concentration (Enterobacter cloacae; Table 2): * (no inhibition at 64 ug/ml)
Range of minimum inhibitory concentration ([2]; Table 2): * (no inhibition at 64 ug/ml)
Range of minimum inhibitory concentration (Neisseria gonorrhoeae; Table 2): <0.5 µg/mL
stability [6]: more stable
